Measurements reported in patent US20030228299A1, “Use of antioxidant for treating and/or preventing surface ocular disorders” (priority 2003, published 2003).

Experiments:
[1] = tested on: continuous-line conjunctival cells (Wong-Kilbourne derivative of Chang conjunctiva, clone 1-5C-4, ATCC CCL-20.2); experiment: Apoptosis induced by benzalkonium chloride, percentage of cellular DNA in the sub-G1 phase by flux cytofluorimetry; assay type: cell-based
Procedure: The apoptosis induced by benzalkonium chloride was chosen as the model of superficial eye disorders treated and/or prevented by the invention.
This study of apoptosis is conducted using flux cytofluorimetry to compare the percentage of DNA in the sub-G1 phase obtained before and after treatment with the compounds of the invention.
In fact, apoptosis is characterized by a fragmentation of the DNA into identical fragments of 200 base pairs. The cells involved in this process therefore have a reduced DNA content.
This fragmentation of the DNA can be measured in situ by flux cytofluorimetry using the DNA stain propidium iodide. The reduced DNA appears with a lower fluorescence intensity than that of normal cells. […] The number of normal cells appears in the G1 peak zone. On the other hand, the cells which have a lower fluorescence intensity, i.e. those whose DNA has been fragmented, appear underneath this G1 peak, i.e. in what is called the sub-G1 peak located in the zone marked M1 in FIG. 1.
Apoptosis was induced by adding 0.001% by volume of benzalkonium chloride (BAC), based on the total volume of the sample, to DMEM (Dulbecco-modified Eagle's medium: reference 21885, Gibco BRL Products; enriched with 10% by volume of fetal calf serum, based on the total volume of the sample, and supplemented with […] of streptomycin and 50 IU/ml of penicillin) in which conjunctival cells are cultivated in 6-well plates.
In practice, the conjunctival cells were cultivated in the culture medium described above and, at 80% confluence, SOD, alpha-lipoic acid and mixtures thereof were added and incubation was carried out for 45 minutes at 37° C. Benzalkonium chloride was then added to each well. After 15 minutes of incubation, the supernatants in each well were collected in 15 ml tubes; the cells were detached by the action of 0.25% trypsin for 5 minutes at 37° C. and added to their respective supernatants. After centrifugation of the tubes, the cells were washed twice in phosphate buffer. The cellular residue was resuspended in phosphate buffer at a concentration of 1 million cells per milliliter.
One hundred microliters of this cellular suspension having a concentration of 10^6/ml were first fixed and permeabilized in one milliliter of absolute ethanol at −20° C. for one hour; then, after washing in phosphate buffer, the DNA was stained with propidium iodide (100 microliters at a concentration of 0.5 mg/ml) for one hour at 4° C. and subsequently analyzed on a cytofluorimeter (Epics XL-MCL, Beckman).
The percentage of sub-G1 peaks, i.e. the percentage of fragmented DNA, and consequently the number of conjunctival cells degraded by apoptosis, was measured.

[2] = after instillation into the eye (De Saint Jean et al. 1999); cited from earlier work
[3] = tested on: corneal and/or conjunctival cells of human origin, in culture; experiment: Dichlorofluorescein diacetate (DCFH-DA) test of free radicals (hydrogen peroxide); assay type: cell-based; conditions: different concentrations; cells exposed to environmental agents
Procedure: The tests are performed by cytofluorimetric microtitration in cold light. […] It combines the reproducibility of the microplate methods with the sensitivity of the cytometric methods and has a very broad detection spectrum (280-870 nm). The microplate is scanned by a pencil of light of a given wavelength which illuminates each culture well for less than 0.3 second, thereby limiting any probe extinction phenomenon.
Corneal and/or conjunctival cells of human origin, in culture, are exposed to various environmental agents in order to induce the release of free radicals. The active compounds of the invention (Cu/Zn SOD or alpha-lipoic acid) are tested at different concentrations on this model. The presence of free radicals in the culture medium is evaluated by the DCFH-DA test (Molecular Probes, Eugene, Oreg., USA) in fluorimetry (λexc.=490 nm−rem.=535 nm, I=4 V). The fluorogenic probe becomes fluorescent when it binds to hydrogen peroxide. The DCFH-DA solution used is a 20 μM solution in Dulbecco-modified minimum essential medium (DMEM). The cultures are then placed for 20 minutes in DMEM containing the probe, after which they are extracted in order to measure the production of hydrogen peroxide. The measurement is made directly on the cells in 96-well plates (Debbasch C. et al. 2000).

[4] = tested on: corneal and conjunctival cells of human origin, in culture; experiment: Hydroethidine test of superoxide anion production; assay type: cell-based; conditions: different concentrations; cells exposed to various aggressors
Procedure: Corneal and conjunctival cells of human origin, in culture, exposed to various aggressors in order to induce the release of free radicals, are treated with the active compounds of the present invention (Cu/Zn SOD or alpha-lipoic acid) at different concentrations, or are left untreated.
Hydroethidine (Molecular Probes) is a fluorogenic probe which is oxidized to the ethidium cation in the presence of the superoxide anion. This probe becomes fluorescent when it binds to the superoxide anion (λexc.=490 nm−λem.=600 nm, I=6 V). The hydroethidine solution used is a 5 μM solution. The cell cultures are placed for 10 minutes in DMEM containing the probe, after which the cells are extracted in order to measure the production of superoxide anion. The measurement is made in 96-well microplates.
The analyses are thus performed on 5000 cells per well, each measurement being repeated six times. The results are expressed in fluorescence units. The mean fluorescence values are calculated in each group and compared by a Mann-Whitney non-parametric U-test.

Row | Compound | Percentage of sub-G1 peaks ([1]; BAC 0.001% alone in DMEM (reference, maximum apoptosis; DMEM control = 10)) [%] | Half-life [2] [h] | Percentage of sub-G1 peaks ([1]; alpha-lipoic acid 0.5 μg/ml DMEM + BAC 0.001%) [%] | Percentage of sub-G1 peaks ([1]; alpha-lipoic acid 0.5 μg/ml in DMEM, no BAC (control)) [%] | Percentage of sub-G1 peaks ([1]; alpha-lipoic acid 5 μg/ml DMEM + BAC 0.001%) [%] | Percentage of sub-G1 peaks ([1]; alpha-lipoic acid 5 μg/ml in DMEM, no BAC (control)) [%] | Deleterious effects of free radicals on corneal and/or conjunctival cells (DCFH-DA test) [3] | Production of superoxide anion and cellular degeneration associated with lipid peroxidation (hydroethidine test) [4]
1 | benzalkonium chloride [BAC] | 23 | 20 | – | – | – | – | – | –
2 | O=C(O)CCCCC1CCSS1 (racemic) [Alpha-lipoic acid, racemic alpha-lipoic acid] | – | – | 8 | 7 | 13 | 7 | significant dose-related decrease | significant dose-related reduction
